Values of other authors, collected in patent US20130064804A1, “BIO-REPLENISHMENT (BioRep) FOR IMPROVING SLEEP ARCHITECTURE” (Naidu LP, priority 2011, published 2013).

What was measured:
[1] = in vivo
[2] = typical dose (1 to 3 mg)

| elevation of blood melatonin levels above normal [2] | SMILES | first-pass: fraction metabolized in the liver [1] |
| --- | --- | --- |
|  | C[S+](CC[C@H](N)C(=O)O)C[C@H]1O[C@@H](n2cnc3c(N)ncnc32)[C@H](O)[C@@H]1O (some centres unmarked) [SAMe, S-adenosylmethionine] | approximately 50% |
| 1 to 20 times | COc1ccc2[nH]cc(CCNC(C)=O)c2c1 [melatonin, N-acetyl-5-methoxytryptamine] |  |
